{"source": "patent US6110491A", "about": "“Compound-loaded liposomes and methods for their preparation” (Hermes Biosciences, Inc., priority 1997, dated 2000)", "key": {"[1]": {"assay": "Doxorubicin loading into liposomes with entrapped anions essentially free from transmembrane pH or ammonium ion gradients (Example 8)", "format": "physicochemical", "conditions": "36° C., 12 hours", "experimental": "Aqueous solutions containing ammonium salts of hydrochloric, nitric, methanesulfonic, L(+)-tartaric, citric, sulfuric, phosphoric, diethylenetriamine pentaacetic (DTPA), or polyacrylic (Mol. weight. 2,000) acids were prepared by titration of the respective acids in water with the standard aqueous solution of ammonium hydroxide to achieve pH 7.3±0.05,followed by volume adjustment to achieve 0.2 equivalent/L of ammonium ion, and, if necessary, by addition of dry sucrose to achieve osmolarity of 377 mmol/kg. (These solutions are hereinafter referred to as Inner Buffers). All solutions additionally contained 10 mM hydroxyethylpiperazinoethane sulfonic acid (HEPES) to stabilize the pH at titration endpoint. To afford determination of intraliposomal pH, a fluorescence indicator 8-hydroxypyrene trisulfonate was added to the solutions to the final concentration of 0.2 mM. Liposomes containing entrapped ammonium salt solutions as above were prepared from egg phosphatidyl choline, cholesterol, and PEG-DSPE as described in the Example 7, except that lipid hydration and extrusion were carried out at room temperature. The bulk aqueous phases of liposome preparations were exchanged by gel-filtration for an aqueous solution (Outer buffer) containing 0.2 M ammonium chloride, 10 mM HEPES, pH 7.3, osmolarity 377 mmol/kg, to obtain liposome preparations substantially without transmembrane ammonium-ion gradients. Loading of doxorubicin was performed as in Example 7, except that it was at 36° C. for 12 hours. Intraliposomal pH was determined using HPTS fluorescence method (Straubinger, et al., 1990) prior to drug loading, and indicated essentially no inside-outside pH gradient (less than 0.2 pH units), compared with the gradient of several pH units typical for ammonium ion gradient liposomes (Haran, et al., 1993). The following results were obtained (nd, not determined)"}, "[2]": {"assay": "Effect of membrane-active ion carriers on loading of doxorubicin into liposomes with entrapped potassium polyacrylate (Example 6, FIG. 1)", "format": "physicochemical", "conditions": "valinomycin, CCCP or nigericin vs. none (FIG. 1)", "source_text": "The liposomes prepared according to the present invention can be clearly distinguished from similar liposomes prepared by pH gradient, or ammonium ion gradient methods, by the liposomal response to membrane-active ion carriers which destroy transmembrane electrochemical gradients. For example, CCCP is a membrane proton carrier which destroys transmembrane pH gradients and leads to quick release of a liposomal-entrapped compound.\nIn contrast, liposomes prepared according to this invention, load doxorubicin in the presence of CCCP or nigericin with nearly the same efficiency as in the absence of such membrane-active ion carriers. This is shown in FIG. 1, where the loading of doxorubicin into liposomes in the presence of valinomycin, CCCP or nigericin was determined as a function of time. The liposomes were prepared as described in Example 1 to have entrapped potassium polyacrylate."}, "[3]": {"assay": "Doxorubicin loading into liposomes with entrapped sodium salts of sulfuric, phosphoric, polyvinylsulfuric or polyphosphoric acid, without or with nigericin (Examples 4, 5)", "format": "physicochemical", "experimental": "Liposomes were prepared from egg phosphatidylcholine using the procedure identical to Example 1 but instead of polyacrylic acid, the inner buffers contained one of the following salts: sodium sulfate, sodium phosphate, sodium polyvinylsulfate (Fluka, Ronkonkoma, N.Y.; average chain length n=13), or sodium polyphosphate (Sigma Chemical Co.; average chain length n=13-18), at a concentration of 100 mill-equivalents of sodium/L. The liposomes were incubated with doxorubicin (300 nmol/μmol of phospholipid) overnight, free drug was removed from the liposomes, and the liposomes were assayed as described in Example 1. Drug incorporation into the liposomes was as follows (in nmol/μmol of phospholipid): sodium sulfate, 82.1±0.95; sodium phosphate, 76.8±2.3; sodium polyvinylsulfate, 109.8±0.25; sodium polyphosphate, 85.2±2.2; \"blank\" liposomes, containing 100 mM sodium chloride, 1.03±0.06.\nLiposomes were prepared and loading with doxorubicin as in Example 4, except that prior to drug loading, nigericin was added to the liposomes at a concentration of 5 μmol/L. The following drug incorporation (nmol/μmol of phospholipid) was obtained in the liposomes containing: sodium sulfate, 96.5±1.9; sodium phosphate, 271.9±3.8; sodium polyvinylsulfate, 133.7±1.9; sodium polyphosphate, 169.7±2.7."}, "[4]": {"conditions": "liposomes loaded by the ammonium ion method (Haran, et al., 1993); cited from earlier work"}, "[5]": {"assay": "Doxorubicin precipitation by Inner Buffer anions (Example 9)", "format": "physicochemical", "conditions": "for Doxorubicin precipitation: 1 mg/ml, 22° C., 3 hours", "experimental": "Doxorubicin hydrochloride was added to the aliquots of Inner Buffers described in the Example 8 above to achieve final concentration of 1 mg/ml. The mixtures were briefly incubated at 60° C. to effect maximum drug dissolution, and further equilibrated at ambient temperature (22° C.) with gentle shaking for 3 hours. Precipitated doxorubicin was separated by centrifugation of an Eppendorf centrifuge (10,000 rpm, 5 min.), and the amount of doxorubicin in supernatant fluid was determined by spectrophotometry. The percent of drug precipitation was calculated as 100% less the percent of doxorubicin remaining in the supernatant fluid relative to the total added doxorubicin."}, "[6]": {"conditions": "inner buffer anion L(+)-tartrate"}, "[7]": {"conditions": "inner buffer anion methanesulfonate"}, "[8]": {"conditions": "inner buffer anion polyacrylate"}}, "note": "“Also recorded” adds a separate entry of the source.", "data": [{"smiles": "COc1cccc2c1C(=O)c1c(O)c3c(c(O)c1C2=O)C[C@@](O)(C(=O)CO)C[C@@H]3O[C@H]1C[C@H](N)[C@H](O)[C@H](C)O1", "note": "[doxorubicin]", "values": [{"measurement": "Doxorubicin incorporation into liposomes", "setting": "[1]; inner buffer anion DTPA", "value": "40.8 mg of drug/mmol of liposome ph"}, {"measurement": "Doxorubicin incorporation into liposomes", "setting": "[1]; [6]", "value": "27.5 mg of drug/mmol of liposome ph"}, {"measurement": "Doxorubicin incorporation into liposomes", "setting": "[1]; inner buffer anion chloride", "value": "16.8 mg of drug/mmol of liposome ph"}, {"measurement": "Doxorubicin incorporation into liposomes", "setting": "[1]; inner buffer anion citrate", "value": "97.9 mg of drug/mmol of liposome ph"}, {"measurement": "Doxorubicin incorporation into liposomes", "setting": "[1]; [7]", "value": "17.1 mg of drug/mmol of liposome ph"}, {"measurement": "Doxorubicin incorporation into liposomes", "setting": "[1]; inner buffer anion nitrate", "value": "12.4 mg of drug/mmol of liposome ph"}, {"measurement": "Doxorubicin incorporation into liposomes", "setting": "[1]; inner buffer anion phosphate", "value": "68.1 mg of drug/mmol of liposome ph"}, {"measurement": "Doxorubicin incorporation into liposomes", "setting": "[1]; [8]", "value": "142.7 mg of drug/mmol of liposome ph"}, {"measurement": "Doxorubicin incorporation into liposomes", "setting": "[1]; inner buffer anion sulfate", "value": "33.5 mg of drug/mmol of liposome ph"}, {"measurement": "Doxorubicin loading in presence of membrane-active ion carriers", "setting": "[2]", "value": "substantially equal efficiency; also recorded: substantially unaffected"}, {"measurement": "Drug incorporation into the liposomes", "setting": "[3]; \"blank\" liposomes containing 100 mM sodium chloride, doxorubicin 300 nmol/μmol", "value": "1.03±0.06 nmol/μmol of phospholipid"}, {"measurement": "Drug incorporation into the liposomes", "setting": "[3]; entrapped sodium phosphate, doxorubicin 300 nmol/μmol, overnight, no nigericin", "value": "76.8±2.3 nmol/μmol of phospholipid"}, {"measurement": "Drug incorporation into the liposomes", "setting": "[3]; entrapped sodium phosphate, nigericin 5 μmol/L", "value": "271.9±3.8 nmol/μmol of phospholipid"}, {"measurement": "Drug incorporation into the liposomes", "setting": "[3]; entrapped sodium polyphosphate, doxorubicin 300 nmol/μmol, overnight, no nigericin", "value": "85.2±2.2 nmol/μmol of phospholipid"}, {"measurement": "Drug incorporation into the liposomes", "setting": "[3]; entrapped sodium polyphosphate, nigericin 5 μmol/L", "value": "169.7±2.7 nmol/μmol of phospholipid"}, {"measurement": "Drug incorporation into the liposomes", "setting": "[3]; entrapped sodium polyvinylsulfate, doxorubicin 300 nmol/μmol, overnight, no nigericin", "value": "109.8±0.25 nmol/μmol of phospholipid"}, {"measurement": "Drug incorporation into the liposomes", "setting": "[3]; entrapped sodium polyvinylsulfate, nigericin 5 μmol/L", "value": "133.7±1.9 nmol/μmol of phospholipid"}, {"measurement": "Drug incorporation into the liposomes", "setting": "[3]; entrapped sodium sulfate, doxorubicin 300 nmol/μmol, overnight, no nigericin", "value": "82.1±0.95 nmol/μmol of phospholipid"}, {"measurement": "Drug incorporation into the liposomes", "setting": "[3]; entrapped sodium sulfate, nigericin 5 μmol/L", "value": "96.5±1.9 nmol/μmol of phospholipid"}, {"measurement": "Effect of nigericin on drug loading", "setting": "[3]; permeabilization of liposome membrane by nigericin 5 μmol/L", "value": "did not decrease drug loading"}, {"measurement": "Doxorubicin release by nigericin", "setting": "[4]", "value": "quickly releases"}, {"measurement": "correlation coefficient R, extent of drug loading vs. drug solubility in Inner Buffer", "setting": "[5]; Examples 8 and 9", "value": 0.9043}, {"measurement": "Doxorubicin precipitation", "setting": "[5]; inner buffer anion DTPA", "value": 58.1, "unit": "%"}, {"measurement": "Doxorubicin precipitation", "setting": "[5]; [6]", "value": 25.0, "unit": "%"}, {"measurement": "Doxorubicin precipitation", "setting": "[5]; inner buffer anion chloride", "value": 1.1, "unit": "%"}, {"measurement": "Doxorubicin precipitation", "setting": "[5]; inner buffer anion citrate", "value": 81.4, "unit": "%"}, {"measurement": "Doxorubicin precipitation", "setting": "[5]; [7]", "value": 0, "unit": "%"}, {"measurement": "Doxorubicin precipitation", "setting": "[5]; inner buffer anion nitrate", "value": 0, "unit": "%"}, {"measurement": "Doxorubicin precipitation", "setting": "[5]; inner buffer anion phosphate", "value": 73.7, "unit": "%"}, {"measurement": "Doxorubicin precipitation", "setting": "[5]; [8]", "value": 98.4, "unit": "%"}, {"measurement": "Doxorubicin precipitation", "setting": "[5]; inner buffer anion sulfate", "value": 47.5, "unit": "%"}]}]}
